Test results taken from patent US9549906B2, “Compositions and methods for treatment of ocular inflammation and/or pain” (priority 2013, dated 2017).
“Also recorded” adds a separate entry of the source.

Experiments:
[1] = cited from earlier work; for stability: acidic solutions, heat, air and light
[2] = test system: endotoxin-induced uveitis (EIU) model; assay: Endotoxin-induced uveitis (EIU) in rats, intravital microscopy of leukocyte-endothelial adhesion; format: in vivo, male Lewis rats
Method: The endotoxin-induced uveitis (EIU) model is a widely used animal model of human bacterially-derived uveitis, involving inflammation of the uveal tract. The uveal tract comprises the middle layer of the eye, including the iris, ciliary body and […].
EIU was induced in male Lewis rats by intravitreal injection of 100 ng of lipopolysaccharide (LPS, Escherichia coli) in saline. Treatments of the cannabinoid 2 receptor (CB2R) agonist, HU-433 were administered, in the presence and absence of the selective antagonist, AM630. Cannabinoid treatments involved intravenous (i.v.) HU-433 (0.001-1 mg/kg), AM630 (2.5 mg/kg i.v.) and AM630+HU-433, administered 15 minutes after intravitreal injection of LPS. Intravital microscopy (IVM) was used to observe leukocyte-endothelial adhesion each hour after induction of EIU for a duration of 6 hours.
Data in FIG. 1 was collected from experiments using an animal model of ocular inflammation called endotoxin-induced uveitis. […] The level of inflammation is quantified by counting the number of adherent leukocytes in the iris microcirculation. Leukocytes must adhere to the microvasculature for more than 30 s (measured as adherent leukocytes per mm^2). Imaging was conducted in a minimum of 4 quadrants within the eye, 4 vessels each quadrant, 6 hours after inflammation was induced.
The strain of animals chosen for these experiments was based on preliminary testing conducted and published literature (see, for example: Toguri et al., 2014). The strain of mice chosen was BALB/c and Lewis rats were used. Animals were anesthetised prior to induction of uveitis. Mice were anesthetized with 5% isoflurane in 100% oxygen. Rats were anesthetized with 65 mg·kg^−1 of sodium pentobarbital. Depth of anesthesia was monitored via toe pinch test. The head of the animal was immobilized, and the sclera of the left eye was punctured with a 30-gauge needle at the dorsonasal quadrant at approximately the level of the equator. Mice received a total of 250 ng of LPS (E. coli 026:B6; Sigma-Aldrich, Oakville, ON, Canada) in 2 μl of sterile 0.9% saline. Rats received a total of 100 ng of LPS in 5 μl of sterile 0.9% saline. Intravitreal injections were made under microscopic control with a Hamilton syringe (Hamilton Company, Reno, Nev., USA), with a 30 G1/6 needle. To avoid touching the lens or causing any damage to the eye, the tip of the needle was directed towards the posterior pole and only the bevelled tip (2-3 mm) entered the vitreal cavity. The needle was held in place after injection for 5 seconds to avoid leakage of the LPS from the site of injection (sclerostomy). Sclerostomy was closed by tissue adhesive to prevent any leakage. Animals with bleeding or swelling post injection were excluded from the study.

[3] = test system: corneal hypersensitivity to capsaicin; assay: Corneal hyperalgesia model (silver nitrate cauterization), blinks to topical 1 μM capsaicin; format: in vivo, murine
Text: The chemical cauterization model of corneal inflammation and hyperalgesia is an established model to look at corneal sensitization and pain. Chemical cauterization of the murine cornea using topical silver nitrate produces non-specific inflammation followed by chronic behavioral sensitization to subsequent chemical stimuli (modified from Wenk & Honda, 2003).
The corneal reflex blink test provides a behavioral assessment of corneal sensitization and hyperalgesia (decreased pain threshold). The hyperalgesia (defined as increased responsiveness to painful stimuli) is gauged by quantifying the number and frequency of a protective blinking response in the treated eye (stimulus-induced blinking) relative to control non-sensitized eyes (Wenk and Honda 2003). Anti-inflammatory agents and agents that act at targets on nociceptive nerves can reduce development of corneal sensitization and hyperalgesic activity (reduced protective blinking response in response to noxious irritant).
Using a model characterized by Wenk & Honda, 2003, chemical cauterization using silver nitrate application to the cornea was used to create a corneal hypersensitivity model. Hypersensitivity was determined by assessing blinks to an ocular topical application of 1 μM capsaicin. The blink response is one measure of the level of corneal hyperalgesia. Increased blinking in response to capsaicin in a cauterized eye indicates a higher level of pain (FIG. 9).
In a model of corneal hyperalgesia, chemical cauterization of the cornea produces corneal epithelial damage, corneal edema and inflammation. […] The effect of repeated dosing with the CB2 allosteric modulator, CBD-DMH, or the cannabinoid Δ^9THC that acts as an agonist at CB1 and CB2 receptors, was tested to determine if these agents could prevent the development of hyperalgesia. Animals were videoed before and after capsaicin administration using a handheld device and video images were analyzed off-line by an observer blinded to the treatment. […]

[4] = test system: experimental models of sepsis; assay: Experimental models of sepsis; format: in vivo
CB2 [5] = target: T1, CB2 (Homo sapiens, UniProt P34972); conditions: cited from earlier work
T1 sequence (P34972 whole entry): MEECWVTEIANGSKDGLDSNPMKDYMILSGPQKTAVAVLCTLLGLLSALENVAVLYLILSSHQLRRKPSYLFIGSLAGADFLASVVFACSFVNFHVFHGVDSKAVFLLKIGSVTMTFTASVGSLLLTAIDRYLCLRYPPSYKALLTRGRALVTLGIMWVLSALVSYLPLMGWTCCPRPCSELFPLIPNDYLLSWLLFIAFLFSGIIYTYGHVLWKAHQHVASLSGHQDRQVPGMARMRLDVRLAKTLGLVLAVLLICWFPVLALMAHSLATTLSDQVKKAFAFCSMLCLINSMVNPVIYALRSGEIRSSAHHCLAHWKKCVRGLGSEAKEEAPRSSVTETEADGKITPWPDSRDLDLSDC

[6] = test system: endotoxin-induced uveitis (EIU) model; assay: LPS-induced uveitis (EIU) in mice, intravital microscopy of adherent leukocytes; format: in vivo, BALB/c Mice; conditions: CBD-DMH 10 mg/kg i.v. once right after intravitreal LPS; IVM at 5 hours
Method: Two different EIU experimental groups were examined in BALB/c Mice: • Group (A): Intravital microscopy (IVM) at 5 hours after intravitreal injection of saline (control) • Group (B): IVM at 5 hours after induction of EIU and i.v. administration of drug vehicle control (1 time, 0.2 mL 30% ethanol in saline right after intravitreal injection) • Group (C): IVM at 5 hours after induction of EIU and i.v. administration of cannabinoid (1 time, 0.2 mL 10 mg/kg CBD-DMH right after intravitreal injection).
The strain of animals chosen for these experiments was based on preliminary testing conducted and published literature (see, for example: Toguri et al., 2014). […] Depth of anesthesia was monitored via toe pinch test. […]
The technique of intravital microscopy (IVM) was used for in vivo investigation of leukocyte recruitment. The intravital fluorescence video microscope was focused on the iridial microcirculation, which allowed for imaging of the leukocyte-endothelial interactions. […] In each video, leukocyte recruitment was observed and recorded for 30 seconds each. […]
Several videos of each quadrant were recorded for 30 seconds. Leukocyte adhesion was the parameter analyzed. […] The number of adherent leukocytes within each vessel segment was calculated by measuring the diameter and length of vessel segment studied, assuming a cylindrical geometry of blood vessel. […]

CB2 [7] = target: T1, CB2; assay: In vitro CB2-dependent G protein signalling, overall conclusion (ERK, PLCβ3, cAMP); format: cell-based; design: expressed in transfected cells; host or cells: HEK 293A cells (transient transfection)
Method: Following 30 min treatment cells were lysed and cAMP activity was measured at 405 nm (RLU, relative light units). Concentration-response curves were fit using non-linear regression analysis (GraphPad Prism, version 5.0).

dispase-induced PVR = assay: Dispase model of proliferative vitreoretinopathy (PVR): clinical score, histopathology, Iba1 microglia; conditions: 10 mg/kg i.p. daily for 7 days
CB2 [8] = target: T1, CB2; assay: In-Cell western, PLCβ3 phosphorylation (Gαq) in HEK 293A cells transfected with hCB2; format: cell-based; design: expressed in transfected cells; conditions: HEK293-A; percentage of the maximal response to the agonist CP 55,940; read-out: Emax (%) ± SEM, PLCβ3 (Gαq)
Method: HEK cells were maintained at 37° C., 5% CO2 in Dulbecco's Modified Eagle's Medium (DMEM) supplemented with 10% Fetal Bovine Serum (FBS) and 10^4 U·mL^−1 Pen/Strep.
For In-Cell™ western analyses, cells were fixed for 10 min at room temperature with 4% paraformaldehyde and washed three times with 0.1 M PBS for 5 min each. Cells were incubated with blocking solution (0.1 M PBS, 5% normal goat serum, 0.3% TritonX-100, in dH2O) for 1 h at room temperature. Cells were treated with primary antibody diluted in antibody dilution buffer [0.1 M PBS, 1% (w/v) BSA, 0.3% TritonX-100, in dH2O] overnight at 4° C. Primary antibody solutions were: pERK1/2(Tyr205/185) (1:200), ERK1/2 (1:200), pPLCβ3(S537) (1:500), PLCβ3 (1:1000), or β-actin (1:2000; Santa Cruz Biotechnology). Cells were washed three times with 0.1 M PBS for 5 min each. Cells were then incubated in IR^CW800dye (1:500; Rockland Immunochemicals, Gilbertsville, Pa., USA) for 1 h at room temperature. Cells were washed three times with 0.1 M PBS for 5 min each. Cells were allowed to air-dry overnight.
In-Cell™ data were collected using the Odyssey Imaging system and software (version 3.0; Li-Cor, Lincoln, Nebr., USA).
Goodness of fit to non-linear regression models was tested in GraphPad (v. 5.0, Prism). […]

CCCCCc1cc(O)c2c(c1)OC(C)(C)[C@@H]1CCC(C)=C[C@@H]21 [THC]
stability [1]: unstable in acidic solutions and when exposed to heat, air and light

COc1ccc(C(=O)c2c(C)n(CCN3CCOCC3)c3cc(I)ccc23)cc1 [AM630, reference compound]
number of adherent leukocytes to the microvasculature, antagonist alone ([2]; AM630 2.5 mg/kg i.v. alone, p<0.01): significant increase | effect of CB2R antagonist pre-treatment on the agonist's decrease in leukocyte adhesion ([2]; AM630 2.5 mg/kg i.v. prior to CB2R agonist in EIU): abolished

C=C1CC/C=C(\C)CC[C@@H]2[C@@H]1CC2(C)C [Beta-C, β-caryophyllene]
corneal hyperalgesia ([3]; Beta-C, dose not given): appeared to also produce a reduction in hyperalgesia

CCCCCCC(C)(C)c1cc(OC)c(C2C=C(CO)C3CC2C3(C)C)c(OC)c1 (stereo not shown) [HU-433]
number of adherent leukocytes in the iris microcirculation ([2]; HU-433 0.1 mg/kg i.v., 6 hours after intravitreal LPS, 0.1 mg/kg): significantly (p<0.05) reduce; also recorded: fewer adherent leukocytes | leukocyte-endothelial adhesion (inflammation) ([2]; HU-433 i.v. 0.01 and 0.1 mg/kg, 6 hours after induction of EIU): significantly (p<0.01) reduced | local release of inflammatory mediators ([2]; acute EIU): decreases local release of inflammatory mediators | potency in reducing ocular inflammation relative to HU-308 ([2]; experimental uveitis): more potent than HU-308 | potency in mitigating inflammation relative to HU-308 [4]: more potent than HU-308 | psychoactivity (CB2 [5]): no psychoactivity | potency relative to HU-308 (CB2 [5]; in vitro and in vivo systems): 2-3 orders of magnitude

C=C(C)[C@@H]1CCC(C)=C[C@H]1c1c(O)cc(C(C)(C)CCCCCC)cc1O [CBD-DMH, cannabidiol-dimethylheptyl]
number of adherent leukocytes [6]: decrease in number of adherent leukocytes | mean number of blinks for 1 minute to 1 μM capsaicin ([3]; 6 hours post corneal insult, 3 doses topical 5% CBD-DMH, 1-way ANOVA p<0.05): statistically significant decrease in blinks compared to untreated and vehicle treated eyes | corneal hypersensitivity (blinks over 1 minute to 1 μM capsaicin) ([3]; unilateral cauterized eye, 3 doses ocular topical 5% CBD-DMH): eliminates this hypersensitivity; also recorded: reduces hypersensitivity in a comparable matter to ocular topical NSAID; also recorded: eliminated hypersensitivity to capsaicin | potency relative to CBD (CB2 [5]; analgesic and anti-inflammatory effects in animal models): more than 10 fold | psychoactivity (CB2 [5]): non-psychotropic | activation of CB2 in the absence of the orthosteric agonist CP55940 (CB2 [7]): does not activate CB2 | effect on potency and efficacy of the orthosteric CB2 agonist CP55940 (CB2 [7]): enhances the potency and efficacy | mode of action on CB2-dependent G protein signalling (CB2 [7]): positive allosteric modulator | clinical score of PVR (scale 0-5) (dispase-induced PVR): significantly decreased | histological score of PVR (scale 0-4) (dispase-induced PVR): significantly decreased

C=C(C)[C@@H]1CCC(C)=C[C@H]1c1c(O)cc(CCCCC)cc1O [CBD, cannabidiol]
stability [1]: unstable in acidic solutions and when exposed to heat, air and light | water solubility [1]: poorly water-soluble | Emax (CB2 [8]): 51.7 ± 7.04% | mode of action on CB2-dependent G protein signalling (CB2 [7]): partial agonist
